According to US7528205B2, “Photo radical generator, photo sensitive resin composition and article” (Dai Nippon Printing Co., Ltd., priority 2003, dated 2009):
Where two headings read alike, the source gives them in different places.

Experiments:
[1] = Evaluation of heat resistance (thermogravimetry, 5% reduction in weight temperature); type: physicochemical; conditions: for 5% heat decomposition temperature: temperature rise rate 10° C./min, nitrogen atmosphere
Procedure: Herein, the 5% reduction in weight temperature means a temperature at which the weight of a sample is reduced […] when a decrement of weight is measured using a thermogravimetric analyzer according to the same method as in the examples of the present invention as will be explained later. Similarly, the 10% reduction in weight temperature means a temperature at which the weight of a sample is reduced […].
Using a differential type differential thermal balance (product name: TG8120; manufactured by Rigaku Corporation), the 5% reduction in weight temperature of each of the compounds 1 to 15 was measured at a temperature rise rate of 10° C./min in a nitrogen atmosphere. As comparative examples, the comparative compounds 2 and 3 and a self-cleavage type photoradical generator Irgacure 907 (trademark; manufactured by Ciba Specialty Chemicals) were similarly measured.

[2] = Evaluation of ultraviolet absorption; type: physicochemical; conditions: for ultraviolet absorption bottom edge / ultraviolet absorption maximum wavelength: acetonitrile solution, 1.0×10^−5 mol/L
Procedure: Using an acetonitrile solution containing 1.0×10^−5 mol/L of each of the compounds 1 and 15, each ultraviolet absorption spectrum was measured.

[3] = Evaluation 2 of curability (triethanolamine added as hydrogen donor)
Procedure: (§1) Using a trifunctional acrylate (product name; M-305, manufactured by Toagosei Co., Ltd.) as polyfunctional monomers, the compounds 1 to 14, the comparative compounds 2 and 3 and a photoradical generator Irgacure 907 (product name; manufactured by Ciba Specialty Chemicals) were mixed with each polyfunctional monomer to prepare each THF solution of each photoradical generator.
(§2) The mixing was performed so that a ratio of the photoradical generator to the polyfunctional monomer is such that number of imide part of each of the compounds 1 to 14 and the comparative compounds 2 and 3 with respect to number of double bond of the polyfunctional monomer is 1/50 (number of imide part/number of polyfunctional monomer) or, in the case of Irgacure, number of the molecule with respect to number of double bond of the polyfunctional monomer is 1/50 (number of Irgacure 907/number of polyfunctional monomer).
(§3) Each solution was applied by spin coating to a glass substrate on which chromium was sputtered to obtain coating layers. Also, a layer without initiator component or comparative compounds and only containing trifunctional acrylate was formed as a blank.
(§4) A decrement of the peak at 810 cm^−1 was recorded with time by using an infrared spectrometer (product name: FTS6000; manufactured by BIO RAD) while exposing the above coating layer to ultraviolet rays, to confirm the degree of the disappearance of a double bond. The atmosphere around the sample during measurement was replaced with nitrogen. As the UV exposure apparatus, UV Spot Cure SP-III type (standard reflecting mirror type) manufactured by Ushio Inc. was used and as the UV lamp, USH-255BY (manufactured by Ushio Inc.) was used.
In order to confirm whether or not the seven-membered ring imide structure-containing group was a hydrogen-drawing type radical generator, triethanolamine was added to THF solutions containing each of the compositions 1 to 14 used in the aforementioned Evaluation 1 of curability and trifunctional acrylate M305, coating layers were formed in the same manner as in the aforementioned Evaluation 1 of curability, and evaluated similarly. As comparative examples, each of the comparative compounds 1 and 3 was used.

[4] = Evaluation 1 of curability (coating layer with trifunctional acrylate, UV exposure, no hydrogen donor); conditions: for Reaction rate (decrement of double bond): nitrogen; for Compatibility with M305: imide part/double bond 1/50
Procedure: as §1, §2, §3, §4

Solubility test = type: physicochemical; conditions: for solubility at 3 h: organic solvent or mixture, thermodynamic from solid
Procedure: As for the compound 1 and the comparative compound 3, a solubility test was performed respectively. Each sample was added to each solvent or monomer so as to be 0.5 mol/L at 20° C. After radiating ultrasonic wave for 3 hours, one with a precipitate was concluded as “0” and one without a precipitate was concluded as “x”.

[5] = Evaluation of transparency (transmittance of cured coating layer); type: physicochemical
Procedure: Using a trifunctional acrylate (product name; M305, manufactured by Toagosei Co., Ltd.) as polyfunctional monomers, each of the compound 1, a combination of the compound 1 and triethanolamine of the same number of mol and a photoradical generator Irgacure 907 (Irg907) were mixed to prepare each THF solution in the same ratio as the Evaluation of curability. Each solution was applied by spin coating to a glass substrate and heated on a 50° C. hot plate for one minute. Then, the substrate was exposed to light from a high pressure mercury lamp at an intensity of 2,000 mJ/cm^2 based on h-rays by using a hand-operated exposure apparatus (MA-1200, manufactured by Dainippon Screen Mfg. Co., Ltd.), to obtain a coating layer having a thickness of 4.2±0.05 μm. The transmittance of each coating layer was measured by a spectrometer (UV-2550 (PC)S GLP; manufactured by Shimadzu Corporation).

[6] = 0.5 mol/L at 20° C., ultrasonic wave 3 hours

Row | SMILES | 5% heat decomposition temperature [1] [°C] | Compatibility with M305 [3] | Compatibility with M305 [4] | Reaction rate (decrement of double bond) ([3]; Exposure 50 mJ) [%] | Reaction rate (decrement of double bond) ([3]; Exposure 100 mJ) [%] | Reaction rate (decrement of double bond) ([3]; Exposure 400 mJ) [%] | Reaction rate (decrement of double bond) ([4]; Exposure 50 mJ) [%] | Reaction rate (decrement of double bond) ([4]; Exposure 100 mJ) [%] | Reaction rate (decrement of double bond) ([4]; Exposure 400 mJ) [%] | further results
1 | COCCn1c(=O)c2cc([N+](=O)[O-])ccc2c2ccc([N+](=O)[O-])cc2c1=O [Compound 15] | 280 |  |  |  |  |  |  |  |  | improvement of heat decomposition temperature in comparison with the compound 1 [1]: ≥ 50 °C; absorption at 365 nm (emitting wavelength of high pressure mercury lamp) [2]: has absorption at a wavelength of 365 nm; ultraviolet absorption bottom edge [2]: about 320 nm; ultraviolet absorption maximum wavelength [2]: about 240 nm
2 | COCCn1c(=O)c2ccccc2c2ccccc2c1=O [Compound 1] | 224 | ∘ | ∘ | 17.3 | 23.6 | 36.6 | 0.3 | 0.5 | 1.1 | transmittance of cured layer ([5]; M305 coating layer 4.2±0.05 μm, 2,000 mJ/cm^2, compared to Irg907): high in transmittance with respect to the light of 410 nm or less; transmittance of cured layer ([5]; triethanolamine of the same number of mol added, M305 coating layer 4.2±0.05 μm): almost same in transmittance as in the case of only the compound 1; solubility, comparison in words (Solubility test): superior in solubility to the comparative compound 3; Solubility in Acetone (Solubility test; [6]): ∘; Solubility in Chloroform (Solubility test; [6]): ∘; Solubility in Dimethylformamide (Solubility test; [6]): ∘; Solubility in Ethyl acetate (Solubility test; [6]): ∘; Solubility in Ethyl lactate (Solubility test; [6]): ∘; Solubility in Methyl acrylate (Solubility test; [6]): ∘; Solubility in Pentaerythritol triacrylate (M305) (Solubility test; [6]): ∘; Solubility in Propylene glycol monoethyl ether acetate (Solubility test; [6]): ∘; Solubility in Tetrahydrofuran (Solubility test; [6]): ∘; ultraviolet absorption bottom edge [2]: about 320 nm; ultraviolet absorption maximum wavelength [2]: about 240 nm
3 | CC(=O)OCCOCCOCCn1c(=O)c2ccccc2c2ccccc2c1=O [Compound 6] | 257 | ∘ | ∘ | 33.1 | 37.9 | 47.9 | 3.2 | 5.4 | 14.2 | 
4 | CC(=O)OCC(C(C)C)n1c(=O)c2ccccc2c2ccccc2c1=O (stereo not shown) [Compound 4] | 208 | ∘ | ∘ | 22.0 | 28.2 | 40.0 | 0.2 | 0.4 | 0.9 | 
5 | CC(=O)OCCOCCn1c(=O)c2ccccc2c2ccccc2c1=O [Compound 3] | 260 | ∘ | ∘ | 26.8 | 32.7 | 43.7 | 0.1 | 0.2 | 0.8 | 
6 | C=CC(=O)OCCOCCOCCn1c(=O)c2ccccc2c2ccccc2c1=O [Compound 9] | 295 | ∘ | ∘ | 13.8 | 19.9 | 34.4 | 0.5 | 0.7 | 1.2 | 

Further lines, with some results ahead:

Row | 5% heat decomposition temperature [1] [°C] | Compatibility with M305 [3] | Compatibility with M305 [4] | SMILES | Reaction rate (decrement of double bond) ([3]; Exposure 50 mJ) [%] | Reaction rate (decrement of double bond) ([3]; Exposure 100 mJ) [%] | Reaction rate (decrement of double bond) ([3]; Exposure 400 mJ) [%] | Reaction rate (decrement of double bond) ([4]; Exposure 50 mJ) [%] | Reaction rate (decrement of double bond) ([4]; Exposure 100 mJ) [%] | Reaction rate (decrement of double bond) ([4]; Exposure 400 mJ) [%] | further results
7 | 229 | ∘ | ∘ | COCCN1C(=O)c2cccc3cccc(c23)C1=O [compound 3, reference compound] | 3.3 | 5.4 | 11.1 | 1.0 | 2.5 | 26.6 | Solubility in Acetone (Solubility test; [6]): ∘; Solubility in Chloroform (Solubility test; [6]): ∘; Solubility in Dimethylformamide (Solubility test; [6]): ∘; Solubility in Tetrahydrofuran (Solubility test; [6]): ∘; solubility at 3 h (Solubility test; ethyl acetate, 0.5 mol/L at 20° C., ultrasonic wave 3 hours, read-out: Solubility in Ethyl acetate): < 500 mM; solubility at 3 h (Solubility test; ethyl lactate, 0.5 mol/L at 20° C., ultrasonic wave 3 hours, read-out: Solubility in Ethyl lactate): < 500 mM; solubility at 3 h (Solubility test; methyl acrylate, 0.5 mol/L at 20° C., ultrasonic wave 3 hours, read-out: Solubility in Methyl acrylate): < 500 mM; solubility at 3 h (Solubility test; pentaerythritol triacrylate (M305), 0.5 mol/L at 20° C., ultrasonic wave 3 hours, read-out: Solubility in Pentaerythritol triacrylate (M305)): < 500 mM; solubility at 3 h (Solubility test; propylene glycol monoethyl ether acetate, 0.5 mol/L at 20° C., ultrasonic wave 3 hours, read-out: Solubility in Propylene glycol monoethyl ether acetate): < 500 mM
8 | 240 | ∘ | ∘ | O=c1c2ccccc2c2ccccc2c(=O)n1CCOCCOCCOCCn1c(=O)c2ccccc2c2ccccc2c1=O [Compound 11] | 18.0 | 21.3 | 29.4 | 27.9 | 37.3 | 42.3 | 
9 | 276 | ∘ | ∘ | O=c1c2ccccc2c2ccccc2c(=O)n1CCOCCOCCOCCOCCOCCn1c(=O)c2ccccc2c2ccccc2c1=O [Compound 12] | 25.2 | 30.7 | 40.6 | 11.0 | 15.2 | 24.8 | 
10 | 184 | ∘ | ∘ | C=CC(=O)OCCN1C(=O)C2=C(CCCC2)C1=O [compound 2, reference compound] | 1.3 | 2.0 | 8.6 | 0.1 | 0.3 | 2.0 | 
